Columns and labels:
[1] = target: NQO1 protein (Homo sapiens, UniProt P15559); test: NQO1 activity measurement (cytochrome C reduction); format: biochemical; conditions: 5 ng NQO1 protein, 200 μM NADH, 77 μM cytochrome C, 37° C., absorbance 550 nm for 10 minutes
Method: An enzyme reaction solution included 25 mM Tris/HCl (pH 7.4), 0.14% bovine serum albumin, 200 μM NADH, 77 μM cytochrome C, and 5 ng of NQO1 protein. Enzymatic reaction was initiated by adding NADH and performed at 37° C. In this regard, a reaction rate was measured by observing absorbance, which was increased due to reduction of cytochrome C, at 550 nm for 10 minutes and NQO1 activity was represented as an amount of reduced cytochrome C [nmol cytochrome C reduced/min/μg protein].
Extinction coefficient for cytochrome C:21.1 mmol/L/cm=21.1 μmol/ml/cm

[2] = system: Cells; test: Measurement of lactate change amount within cells; format: cell-based; conditions: PCA extract of cells, lactate measured from supernatant (Megazyme, K-LATE)
Method: Cells were treated with 400 μl of 6% PCA, and then collected and extracted. Centrifugation (13,000 rpm, 10 min) was performed. A precipitate was dried using a Speed-Vac and then a weight of dried precipitate was measured. A supernatant was neutralized using 400 μl of 1 M KOH and a final volume thereof was adjusted to 1 ml using 0.33 M KH2PO4/K2HPO4, pH 7.5. Centrifugation (13,000 rpm, 10 min) was performed and the amount of lactate was measured from a supernatant (Megazyme, K-LATE).

[3] = system: C57BL/6J Lep ob/ob mice; test: Weight loss effects in obese mice (ob/ob); format: in vivo; conditions: vs 0.1% SLS controls
Method: 10 week-old C57BL/6J Lep ob/ob mice having genetic obesity characteristics available from ORIENTBIO were prepared. Two mice were raised in each polycarbonate breeding cage (200 W×260 L×130H (mm), Three-shine) in which temperature was 20 to 24° C., relative humidity was 35 to 65%, illuminance was 150 to 300 lux, night and day were 12 hours, and exhaust was performed at 10 to 15 air changes per hour. As a feed, low fat diet (11.9 kcal % fat, 5053, Labdiet) manufactured by ORIENTBIO was used. The feed was contained in a feeder and free intake was allowed. As drinking water, water, which was contained in a 250 mL polycarbonate based bottle, purified through a filter and a sterilizer was used and free intake was allowed.
The compound according to Example 1 synthesized in the present invention was orally administered to three C57BL/6J Lep ob/ob mice in amounts of 40 mg/kg, 80 mg/kg, and 120 mg/kg, respectively, once every day for two weeks. For administration, a disposable syringe fitted with a sonde for oral administration was used and 10 ml/kg of the compound was orally administered into the stomach. As controls, three C57BL/6J Lep ob/ob mice were administered 0.1% sodium lauryl sulfate (SLS) in an amount of 120 mg/kg in the same manner as described above. After administration, a time-dependent weight increase ratio, weight change, and intake amount were measured and results are illustrated in FIG. 1 below.
Weights of the experimental animals were measured immediately before administration of a test material and seven times a week from an administration initiation day to a test termination day. Increased total weights were calculated by subtracting weights measured on an experiment initiation day from weights measured one day before an experiment termination day. Food intake amounts were calculated by measuring feed supply amounts and remaining amounts twice a week from an initiation day of test material administration to a test termination day for each individual. […]
(§1) Experiments were performed under the same conditions as in Experimental Example 3-1 except that 15 week-old C57BL/6J Lep ob/ob mice having genetic obesity characteristics available from ORIENTBIO were prepared, the compounds according to Examples 5 and 6 were administered to three C57BL/6J Lep ob/ob mice in an amount of 150 mg/kg, 150 mg/kg of 0.1% SLS was administered to each of three C57BL/6J Lep ob/ob mice as controls, and experiments were performed for a total of one week. Weight increase ratios, weight change, and intake amounts depending on administration time were measured and results are illustrated in FIG. 5 below.
as §1, with “that 10” for “that 15”, “Examples 8, 9,” for “Examples 5”, “and 12” for “and 6”, “FIG. 6” for “FIG. 5”
Experiments were performed under the same conditions as in Experimental Example 3-1 except that 6 week-old C57BL/6J Lep ob/ob mice having genetic obesity characteristics available from ORIENTBIO were prepared, the compounds according to Examples 17, 18, 22, and 23 were administered to three C57BL/6J Lep ob/ob mice in an amount of 100 mg/kg, 100 mg/kg of 0.1% SLS was administered to each of three C57BL/6J Lep ob/ob mice as controls, and experiments were performed for a total of one week. Weight increase ratios, weight change, and intake amounts depending on administration time were measured and results are illustrated in FIG. 10 below. […]

[4] = Exp. Ex. 3-3, FIG. 3: 11 week-old ob/ob mice, 100 mg/kg oral, total of 6 days
[5] = Exp. Ex. 3-4, FIG. 4: 12 week-old ob/ob mice, 150 mg/kg oral, one week
[6] = Exp. Ex. 3-5, FIG. 5: 15 week-old ob/ob mice, 150 mg/kg oral, one week
[7] = Exp. Ex. 3-6, FIG. 6: 10 week-old ob/ob mice, 150 mg/kg oral, one week
[8] = Exp. Ex. 3-7, FIG. 10: 6 week-old ob/ob mice, 100 mg/kg oral, one week
[9] = Exp. Ex. 3-8, FIG. 11: 10 week-old ob/ob mice, 150 mg/kg oral, five days

Sequence of NQO1 protein (P15559 whole entry, species assumed): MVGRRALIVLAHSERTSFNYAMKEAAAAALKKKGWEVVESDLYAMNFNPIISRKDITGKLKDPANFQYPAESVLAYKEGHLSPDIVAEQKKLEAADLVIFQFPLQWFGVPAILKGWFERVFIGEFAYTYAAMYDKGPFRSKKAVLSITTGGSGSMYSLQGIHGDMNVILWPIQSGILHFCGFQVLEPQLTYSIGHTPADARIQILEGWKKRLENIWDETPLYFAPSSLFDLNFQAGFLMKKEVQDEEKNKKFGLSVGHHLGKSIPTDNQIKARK

CC(C)c1nc2c(n1C)-c1ccccc1C(=O)C2=O [Example 3, 2-isopropyl-1-methyl-1H-naphtho[2,1-d]imidazole-4,5-dione]
NQO1 activity (5 μM, [nmol cytochrome C reduced/min/μg protein]) [1]: 139 nmol cytochrome C reduced/min/μg protein
Lactate change amount within cells (nmol/mg cell) [2]: 11.3 nmol/mg cell
intake amount [3, 4]: significantly decreased
weight increase ratio [3, 4]: significantly decreased

O=C1C(=O)c2[nH]c(-c3ccccc3)nc2-c2ccccc21 [Example 4, 2-phenyl-3H-naphtho[2,1-d]imidazole-4,5-dione]
NQO1 activity (5 μM, [nmol cytochrome C reduced/min/μg protein]) [1]: 122 nmol cytochrome C reduced/min/μg protein
Lactate change amount within cells (nmol/mg cell) [2]: 9.1 nmol/mg cell
weight change [3, 5]: significantly decreased
weight increase ratio [3, 5]: significantly decreased

CC(C)(C)c1nc2c([nH]1)C(=O)C(=O)c1ccccc1-2 [Example 5, 2-tert-butyl-3H-naphtho[2,1-d]imidazole-4,5-dione]
NQO1 activity (5 μM, [nmol cytochrome C reduced/min/μg protein]) [1]: 153 nmol cytochrome C reduced/min/μg protein
Lactate change amount within cells (nmol/mg cell) [2]: 8.5 nmol/mg cell
intake amount [3, 5]: significantly decreased
weight change [3, 5]: significantly decreased
weight increase ratio [3, 5]: significantly decreased
intake amount [3, 6]: significantly decreased
weight change [3, 6]: significantly decreased
weight increase ratio [3, 6]: significantly decreased

O=C1C(=O)c2[nH]c(C3CCCCC3)nc2-c2ccccc21 [Example 6, 2-cyclohexyl-3H-naphtho[2,1-d]imidazole-4,5-dione]
NQO1 activity (5 μM, [nmol cytochrome C reduced/min/μg protein]) [1]: 253 nmol cytochrome C reduced/min/μg protein
Lactate change amount within cells (nmol/mg cell) [2]: 4.6 nmol/mg cell
intake amount [3, 6]: significantly decreased
weight change [3, 6]: significantly decreased
weight increase ratio [3, 6]: significantly decreased

CC(C)Cc1nc2c([nH]1)C(=O)C(=O)c1ccccc1-2 [Example 8]
NQO1 activity (5 μM, [nmol cytochrome C reduced/min/μg protein]) [1]: 213 nmol cytochrome C reduced/min/μg protein
Lactate change amount within cells (nmol/mg cell) [2]: 10.0 nmol/mg cell
intake amount [3, 7]: significantly decreased
weight change [3, 7]: significantly decreased
weight increase ratio [3, 7]: significantly decreased

CCc1nc2c([nH]1)C(=O)C(=O)c1ccccc1-2 [Example 9]
NQO1 activity (5 μM, [nmol cytochrome C reduced/min/μg protein]) [1]: 172 nmol cytochrome C reduced/min/μg protein
Lactate change amount within cells (nmol/mg cell) [2]: 8.0 nmol/mg cell
intake amount [3, 7]: significantly decreased
weight change [3, 7]: significantly decreased
weight increase ratio [3, 7]: significantly decreased

O=C1C(=O)c2[nH]c(C3CC3)nc2-c2ccccc21 [Example 12]
NQO1 activity (5 μM, [nmol cytochrome C reduced/min/μg protein]) [1]: 184 nmol cytochrome C reduced/min/μg protein
Lactate change amount within cells (nmol/mg cell) [2]: 7.0 nmol/mg cell
intake amount [3, 7]: significantly decreased
weight change [3, 7]: significantly decreased
weight increase ratio [3, 7]: significantly decreased

CC(C)c1nc2c([nH]1)C(=O)C(=O)c1cc(Cl)ccc1-2 [Example 17]
NQO1 activity (5 μM, [nmol cytochrome C reduced/min/μg protein]) [1]: 206.9 nmol cytochrome C reduced/min/μg protein
Lactate change amount within cells (nmol/mg cell) [2]: 6.0 nmol/mg cell
intake amount [3, 8]: significantly decreased in some sections
weight change [3, 8]: significantly decreased in some sections
weight increase ratio [3, 8]: significantly decreased in some sections

CC(C)c1nc2c([nH]1)C(=O)C(=O)c1cc(N)ccc1-2 [Example 18]
NQO1 activity (5 μM, [nmol cytochrome C reduced/min/μg protein]) [1]: 177.5 nmol cytochrome C reduced/min/μg protein
Lactate change amount within cells (nmol/mg cell) [2]: 6.6 nmol/mg cell
intake amount [3, 8]: significantly decreased in some sections
weight change [3, 8]: significantly decreased in some sections
weight increase ratio [3, 8]: significantly decreased in some sections

CC(C)c1nc2c([nH]1)C(=O)C(=O)c1cc(F)ccc1-2 [Example 22]
NQO1 activity (5 μM, [nmol cytochrome C reduced/min/μg protein]) [1]: 206.1 nmol cytochrome C reduced/min/μg protein
Lactate change amount within cells (nmol/mg cell) [2]: 7.3 nmol/mg cell
intake amount [3, 8]: significantly decreased in some sections
weight change [3, 8]: significantly decreased in some sections
weight increase ratio [3, 8]: significantly decreased in some sections

CC(C)c1nc2c([nH]1)C(=O)C(=O)c1cc(N(C)C)ccc1-2 [Example 23]
NQO1 activity (5 μM, [nmol cytochrome C reduced/min/μg protein]) [1]: 78.4 nmol cytochrome C reduced/min/μg protein
Lactate change amount within cells (nmol/mg cell) [2]: 5.6 nmol/mg cell
intake amount [3, 8]: significantly decreased in some sections
weight change [3, 8]: significantly decreased in some sections
weight increase ratio [3, 8]: significantly decreased in some sections

CCc1nc2c([nH]1)C(=O)C(=O)c1cc(F)ccc1-2 [Example 26]
NQO1 activity (5 μM, [nmol cytochrome C reduced/min/μg protein]) [1]: 223.5 nmol cytochrome C reduced/min/μg protein
Lactate change amount within cells (nmol/mg cell) [2]: 5.7 nmol/mg cell
intake amount [3, 9]: significantly decreased in some sections
weight change [3, 9]: significantly decreased in some sections
weight increase ratio [3, 9]: significantly decreased in some sections

CCc1nc2c([nH]1)C(=O)C(=O)c1cc(NCc3ccc(F)cc3)ccc1-2 [Example 47]
NQO1 activity (5 μM, [nmol cytochrome C reduced/min/μg protein]) [1]: 41.0 nmol cytochrome C reduced/min/μg protein
Lactate change amount within cells (nmol/mg cell) [2]: 5.9 nmol/mg cell

CC(C)(C)OC(=O)N(Cc1nc2c([nH]1)C(=O)C(=O)c1ccccc1-2)c1ccccc1 [Example 48]
NQO1 activity (5 μM, [nmol cytochrome C reduced/min/μg protein]) [1]: 59.8 nmol cytochrome C reduced/min/μg protein
Lactate change amount within cells (nmol/mg cell) [2]: 5.1 nmol/mg cell

O=C1C(=O)c2[nH]c(CNc3ccccc3)nc2-c2ccccc21 [Example 49]
NQO1 activity (5 μM, [nmol cytochrome C reduced/min/μg protein]) [1]: 128.4 nmol cytochrome C reduced/min/μg protein
Lactate change amount within cells (nmol/mg cell) [2]: 5.2 nmol/mg cell

O=C1C(=O)c2[nH]c(COc3ccccc3)nc2-c2ccccc21 [Example 78]
NQO1 activity (5 μM, [nmol cytochrome C reduced/min/μg protein]) [1]: 81.7 nmol cytochrome C reduced/min/μg protein
Lactate change amount within cells (nmol/mg cell) [2]: 8.0 nmol/mg cell
